Laboratory results: patent US20150306108A1, “COMPOSITIONS OF ALDH1A1 INHIBITORS AND METHODS OF USE IN TREATING CANCER” (Indiana University Research & Technology Corporation, priority 2014, published 2015)
Read-outs that look alike come from different tables or passages of the source.

What was measured:
[1] = biological target: T1, ALDH3A1 (Homo sapiens, UniProt P30838); test: ALDH3A1 benzaldehyde oxidation activity assay; assay type: biochemical; conditions: for IC50: Table 4, NI/NI(A) at 100 μM compound, read-out: IC50 in μM (SE) ALDH3A1
T1 construct: made in house
T1 sequence (P30838 1-453): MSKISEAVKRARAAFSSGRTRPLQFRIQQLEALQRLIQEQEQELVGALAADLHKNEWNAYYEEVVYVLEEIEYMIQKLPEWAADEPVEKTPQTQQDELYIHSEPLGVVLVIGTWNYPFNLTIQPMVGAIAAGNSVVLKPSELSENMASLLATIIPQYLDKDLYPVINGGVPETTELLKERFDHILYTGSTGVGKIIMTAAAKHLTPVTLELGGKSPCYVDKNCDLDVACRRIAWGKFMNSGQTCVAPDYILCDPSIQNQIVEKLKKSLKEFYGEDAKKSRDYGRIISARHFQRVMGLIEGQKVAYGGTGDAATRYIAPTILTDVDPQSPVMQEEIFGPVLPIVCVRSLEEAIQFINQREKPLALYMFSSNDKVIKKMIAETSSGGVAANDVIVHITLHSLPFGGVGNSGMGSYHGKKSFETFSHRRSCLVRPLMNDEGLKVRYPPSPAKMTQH
Experimental: Hits from the HTS were ordered from ChemDiv to determine if they had any effect on aldehyde oxidation and whether they were selective for ALDH1A1 compared to ALDH2 and ALDH3A1. Dehydrogenase activity of the three isoenzymes were assayed by monitoring the production of NADH at 340 nm (molar extinction coefficient of 6220 M^−1 cm^−1) on a Beckman DU-640 or Cary 300 Bio UV-Vis spectrophotometer for 2 to 3 minutes. For ALDH1A1 and ALDH2, the reaction contained 100-200 nM enzyme, 200 μM NAD^+, 100 μM propionaldehyde, and 1% DMSO in 50 mM Na^+ BES, pH 7.5 at room temperature. For ALDH3A1, the reaction contained 20 nM enzyme, 200 μM NAD^+, 300 μM benzaldehyde, and 1% DMSO in either 100 mM sodium phosphate or 50 mM Na^+ BES at pH 7.5 at room temperature.
For most compounds, 20 μM concentration was used for the selectivity assays. […] Following a 2 minute incubation of enzyme, compound, and NAD^+, the reaction was initiated by adding substrate. […] Data were fit to the four parameter EC50 equation using SigmaPlot (StatSys v12.3).
Dehydrogenase activity of purified recombinant ALDH1A1, ALDH1A2, ALDH1A3, ALDH1B1, ALDH2, and ALDH3A1 was assayed spectrophotometrically by monitoring the formation of NADH at 340 nm (molar extinction coefficient of 6220 M^−1 cm^−1) on a Beckman DU-640 or Cary 300 Bio UV-Vis spectrophotometer. Characterization of ALDH1A1 WT and ALDH1A1 G458N were performed by co-varying acetaldehyde and NAD^+ concentrations in reactions containing 150-300 nM enzyme, 50-500 μM or 20-200 μM acetaldehyde, and 50-500 μM NAD^+ in 50 mM sodium BES, pH 7.5 at 25° C. Reactions were initiated by adding enzyme. Selectivity of compounds for dehydrogenase activity of ALDH1A1, ALDH1A2, ALDH1A3, ALDH1B1 and ALDH2 were measured in a solution containing 100-200 nM enzyme, 200 μM NAD^+, 1% DMSO, and 100 μM propionaldehyde (non-saturating for all enzymes tested, except ALDH2) in 50 mM sodium BES. ALDH3A1 activity was measured under the following conditions: 25 nM enzyme, 200 μM NAD^+, 1% DMSO, and 300 μM benzaldehyde (˜KM) in either 100 mM sodium phosphate buffer, pH 7.5 or 50 mM sodium BES, pH 7.5. All assays were performed at 25° C. and were initiated by the addition of the aldehyde substrate following a 2 minute pre-incubation with compound and cofactor. Selectivity was initially tested using 20 μM compound, with ALDH1A1-selective modulators further tested using 100 μM compound. […] After a 2 minute pre-incubation with compound and NAD^+, all reactions were initiated by the addition of propionaldehyde. Data were fit to the four parameter EC50 equation using SigmaPlot (StatSys v12.3). The values represent the average of three independent experiments (each n=3). The mode of inhibition was determined via steady-state kinetics by co-varying inhibitor and substrate concentrations at fixed concentration of the second substrate. All reactions contained 100-150 nM ALDH1A1 and 1% DMSO in 50 mM sodium BES, pH 7.5 at 25° C. […] All data were fit to competitive, noncompetitive, uncompetitive, and mixed inhibition models using both single substrate-single inhibitor or tight binding inhibition programs in SigmaPlot (StatSys v12.3). The appropriate model was selected through analysis of goodness-of-fit and the residuals of those fits. The values represent the average of three independent experiments (each n=3) using at least two protein preps.
ALDH1A1, ALDH1A2, ALDH1A3, ALDH2, and ALDH3A1 were produced and purified as previously described. A highthroughput screen (HTS) of 64,000 compounds from the ChemDiv Corp. was performed to identify activators and inhibitors of ALDH1A1. The hydrolysis of para-nitrophenylacetate was used as a measure ALDH1A1 activity (see SM). Selectivity for closely related orthologs was tested at 20 and 100 μM using purified recombinant human ALDH1A1, ALDH1A2, ALDH1A3, ALDH2, and ALDH3A1. […]

[2] = biological target: T2, ALDH1A3 (Homo sapiens, UniProt P47895); test: ALDH1A3 aldehyde oxidation activity assay; assay type: biochemical; conditions: for effect on aldehyde oxidation catalyzed by ALDH1A3: 100 μM compound (CM037: concentrations up to 100 μM)
T2 sequence (P47895 1-512): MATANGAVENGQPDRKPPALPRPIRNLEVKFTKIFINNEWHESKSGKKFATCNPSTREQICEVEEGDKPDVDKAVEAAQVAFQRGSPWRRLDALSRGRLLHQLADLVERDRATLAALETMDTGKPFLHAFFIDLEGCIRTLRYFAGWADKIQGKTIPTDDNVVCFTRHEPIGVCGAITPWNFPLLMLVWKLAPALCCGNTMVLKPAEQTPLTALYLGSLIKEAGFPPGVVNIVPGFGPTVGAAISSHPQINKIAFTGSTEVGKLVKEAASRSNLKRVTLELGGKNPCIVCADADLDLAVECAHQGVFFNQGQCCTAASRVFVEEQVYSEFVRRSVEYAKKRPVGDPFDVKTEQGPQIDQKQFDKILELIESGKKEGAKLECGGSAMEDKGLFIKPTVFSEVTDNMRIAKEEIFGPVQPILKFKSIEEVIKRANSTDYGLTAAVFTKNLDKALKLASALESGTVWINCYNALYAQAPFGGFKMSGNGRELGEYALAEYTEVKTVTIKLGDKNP

[3] = Table 4, NI/NI(A) at 100 μM compound, read-out: IC50 in μM (SE) ALDH1A3

IC50 [2, 3] | SMILES | IC50 [1] | also measured
 | COc1ccc(C(=O)CSC#N)cc1OC [CM302] |  | effect on ALDH3A1 ([1]; 20 μM compound): To a limited degree; IC50 with ALDH3A1 compared to ALDH1A1 and ALDH2 ([1]; fold higher): greater than 10 fold
 | CCOC(=O)CSc1nc2c(sc3ccccc32)c(=O)n1CCCN1CCCC1 [CM037, ethyl-2-((4-oxo-3-(3-(pryrrolidin-1-yl)propyl)-3,4-dihydrobenzo[4,5]thioeno[3,2-d]pyrimidin-2-yl)thio)acetate] |  | effect on ALDH3A1 ([1]; concentrations up to 100 μM): no effect; effect on aldehyde oxidation catalyzed by ALDH1A3 [2]: no effect
 | CC(C)CCn1c(CN2CCN(C(=O)c3ccco3)CC2)nc2c1c(=O)n(C)c(=O)n2C [CM026] | > 100 µM | effect on ALDH3A1 ([1]; 20 μM compound): no effect; effect on ALDH1A3 ([2]; 20 μM compound): no effect; effect on aldehyde oxidation catalyzed by ALDH1A3 [2]: modestly increased
> 100 µM | Cn1c(=O)c2c(nc(CN3CCC(C(N)=O)CC3)n2CCCc2ccccc2)n(C)c1=O [CM028] | > 100 µM | 
> 100 µM | CC(C)CCn1c(CN2CCOCC2)nc2c1c(=O)n(C)c(=O)n2C [CM056] | > 100 µM | 
 | Cn1c(=O)c2[nH]cnc2n(C)c1=O [Theophylline, reference compound] | > 100 µM | IC50 [2]: > 100 µM

SMILES | IC50 [2, 3] | IC50 [1] | also measured
Cn1c(=O)c2c(ncn2C)n(C)c1=O [Caffeine, reference compound] | > 100 µM | > 100 µM | 
